# Results from US20160251332A1, “Herbicidal Compounds” (SYNGENTA PARTICIPATIONS AG, priority 2013, published 2016).
# What was measured:
# Format in all cases: in vivo
# Abutilon theophrasti [1] = assay: Pre-emergence herbicidal activity, ABUTH; details: Application pre-emergence, 1000 g/Ha, evaluated after 13 days, scale 0-5
# Experimental: (§1) Seeds of a variety of test species were sown in standard soil in pots. After cultivation for one day (pre-emergence) under controlled conditions in a glasshouse (at 24/16° C., day/night; 14 hours light; 65% humidity), the plants were sprayed with an aqueous spray solution derived from the formulation of the technical active ingredient in acetone/water (50:50) solution containing 0.5% Tween 20 (polyoxyethelyene sorbitan monolaurate, CAS RN 9005-64-5). The test plants were then grown in a glasshouse under controlled conditions (at 24/16° C., day/night; 14 hours light; 65% humidity) and watered twice daily. After 13 days, the test was evaluated (5=total damage to plant; 0=no damage to plant).
# Echinochloa crus-galli [2] = assay: Post-emergence herbicidal activity, ECHCG; details: Application post-emergence, 1000 g/Ha, evaluated after 13 days, scale 0-5
# Experimental: (§2) Seeds of a variety of test species were sown in standard soil in pots. After 8 days cultivation (post-emergence) under controlled conditions in a glasshouse (at 24/16° C., day/night; 14 hours light; 65% humidity), the plants were sprayed with an aqueous spray solution derived from the formulation of the technical active ingredient in acetone/water (50:50) solution containing 0.5% Tween 20 (polyoxyethelyene sorbitan monolaurate, CAS RN 9005-64-5). The test plants were then grown in a glasshouse under controlled conditions (at 24/16° C., day/night; 14 hours light; 65% humidity) and watered twice daily. After 13 days, the test was evaluated (5=total damage to plant; 0=no damage to plant).
# Zea mays [3] = assay: Pre-emergence herbicidal activity, ZEAMX; details: Application pre-emergence, 1000 g/Ha, evaluated after 13 days, scale 0-5
# Experimental: as §1
# Amaranthus retroflexus [4] = assay: Post-emergence herbicidal activity, AMARE; details: Application post-emergence, 1000 g/Ha, evaluated after 13 days, scale 0-5
# Experimental: as §2
# Setaria faberi [5] = assay: Pre-emergence herbicidal activity, SETFA; details: Application pre-emergence, 1000 g/Ha, evaluated after 13 days, scale 0-5
# Experimental: as §1
# Amaranthus retroflexus [6] = assay: Pre-emergence herbicidal activity, AMARE; details: Application pre-emergence, 1000 g/Ha, evaluated after 13 days, scale 0-5
# Experimental: as §1
# Setaria faberi [7] = assay: Post-emergence herbicidal activity, SETFA; details: Application post-emergence, 1000 g/Ha, evaluated after 13 days, scale 0-5
# Experimental: as §2
# Echinochloa crus-galli [8] = assay: Pre-emergence herbicidal activity, ECHCG; details: Application pre-emergence, 1000 g/Ha, evaluated after 13 days, scale 0-5
# Experimental: as §1
# Zea mays [9] = assay: Post-emergence herbicidal activity, ZEAMX; details: Application post-emergence, 1000 g/Ha, evaluated after 13 days, scale 0-5
# Experimental: as §2
# Abutilon theophrasti [10] = assay: Post-emergence herbicidal activity, ABUTH; details: Application post-emergence, 1000 g/Ha, evaluated after 13 days, scale 0-5
# Experimental: as §2
smiles,measurement,setting,value
COC(C)(C)c1ccnc(N2C(=O)N(C)CC2O)c1 (stereo not drawn) [Compound A49],ABUTH damage score,Abutilon theophrasti [1],5
same,ECHCG damage score,Echinochloa crus-galli [2],5
same,ZEAMX damage score,Zea mays [3],2
same,AMARE damage score,Amaranthus retroflexus [4],5
same,SETFA damage score,Setaria faberi [5],5
same,AMARE damage score,Amaranthus retroflexus [6],5
same,SETFA damage score,Setaria faberi [7],5
same,ECHCG damage score,Echinochloa crus-galli [8],5
same,ZEAMX damage score,Zea mays [9],3
same,ABUTH damage score,Abutilon theophrasti [10],5
CN1CC(O)N(c2cc(C(F)(F)F)c(-c3ccc(Cl)nc3)cn2)C1=O (stereo not drawn) [Compound A21],ABUTH damage score,Abutilon theophrasti [1],5
same,ECHCG damage score,Echinochloa crus-galli [2],5
same,ZEAMX damage score,Zea mays [3],3
same,AMARE damage score,Amaranthus retroflexus [4],5
same,SETFA damage score,Setaria faberi [5],5
same,AMARE damage score,Amaranthus retroflexus [6],5
same,SETFA damage score,Setaria faberi [7],5
same,ECHCG damage score,Echinochloa crus-galli [8],5
same,ZEAMX damage score,Zea mays [9],5
same,ABUTH damage score,Abutilon theophrasti [10],5
CN1CC(O)N(c2cc(C(F)(F)C(F)(F)F)ccn2)C1=O (stereo not drawn) [Compound A48],ABUTH damage score,Abutilon theophrasti [1],5
same,ECHCG damage score,Echinochloa crus-galli [2],5
same,ZEAMX damage score,Zea mays [3],2
same,AMARE damage score,Amaranthus retroflexus [4],5
same,SETFA damage score,Setaria faberi [5],5
same,AMARE damage score,Amaranthus retroflexus [6],5
same,SETFA damage score,Setaria faberi [7],5
same,ECHCG damage score,Echinochloa crus-galli [8],4
same,ZEAMX damage score,Zea mays [9],3
same,ABUTH damage score,Abutilon theophrasti [10],5
CC(=O)Nc1ccccc1-c1cnc(N2C(=O)N(C)CC2O)cc1C(F)(F)F (stereo not drawn) [Compound A35],ABUTH damage score,Abutilon theophrasti [1],2
same,ECHCG damage score,Echinochloa crus-galli [2],4
same,ZEAMX damage score,Zea mays [3],1
same,AMARE damage score,Amaranthus retroflexus [4],5
same,SETFA damage score,Setaria faberi [5],2
same,AMARE damage score,Amaranthus retroflexus [6],5
same,SETFA damage score,Setaria faberi [7],4
same,ECHCG damage score,Echinochloa crus-galli [8],2
same,ZEAMX damage score,Zea mays [9],1
same,ABUTH damage score,Abutilon theophrasti [10],5
CN1CC(O)N(c2cc(C(F)(F)F)c(-c3ccc(N4CCOCC4)nc3)cn2)C1=O (stereo not drawn) [Compound A31],ABUTH damage score,Abutilon theophrasti [1],2
same,ECHCG damage score,Echinochloa crus-galli [2],4
same,ZEAMX damage score,Zea mays [3],0
same,AMARE damage score,Amaranthus retroflexus [4],5
same,SETFA damage score,Setaria faberi [5],2
same,AMARE damage score,Amaranthus retroflexus [6],2
same,SETFA damage score,Setaria faberi [7],5
same,ECHCG damage score,Echinochloa crus-galli [8],0
same,ZEAMX damage score,Zea mays [9],2
same,ABUTH damage score,Abutilon theophrasti [10],5
CN1CC(O)N(c2cc(C(F)F)ccn2)C1=O (stereo not drawn) [Compound A44],ABUTH damage score,Abutilon theophrasti [1],5
same,ECHCG damage score,Echinochloa crus-galli [2],5
same,ZEAMX damage score,Zea mays [3],2
same,AMARE damage score,Amaranthus retroflexus [4],5
same,SETFA damage score,Setaria faberi [5],5
same,AMARE damage score,Amaranthus retroflexus [6],5
same,SETFA damage score,Setaria faberi [7],5
same,ECHCG damage score,Echinochloa crus-galli [8],4
same,ZEAMX damage score,Zea mays [9],4
same,ABUTH damage score,Abutilon theophrasti [10],5
COCc1cnc(N2C(=O)N(C)CC2O)cc1C(F)(F)F (stereo not drawn) [Compound A51],ABUTH damage score,Abutilon theophrasti [1],5
same,ECHCG damage score,Echinochloa crus-galli [2],5
same,ZEAMX damage score,Zea mays [3],3
same,AMARE damage score,Amaranthus retroflexus [4],5
same,SETFA damage score,Setaria faberi [5],5
same,AMARE damage score,Amaranthus retroflexus [6],5
same,SETFA damage score,Setaria faberi [7],5
same,ECHCG damage score,Echinochloa crus-galli [8],5
same,ZEAMX damage score,Zea mays [9],3
same,ABUTH damage score,Abutilon theophrasti [10],5
CCOC(=O)c1cncc(-c2cnc(N3C(=O)N(C)CC3O)cc2C(F)(F)F)c1 (stereo not drawn) [Compound A34],ABUTH damage score,Abutilon theophrasti [1],5
same,ECHCG damage score,Echinochloa crus-galli [2],5
same,ZEAMX damage score,Zea mays [3],1
same,AMARE damage score,Amaranthus retroflexus [4],5
same,SETFA damage score,Setaria faberi [5],3
same,AMARE damage score,Amaranthus retroflexus [6],5
same,SETFA damage score,Setaria faberi [7],5
same,ECHCG damage score,Echinochloa crus-galli [8],4
same,ZEAMX damage score,Zea mays [9],3
same,ABUTH damage score,Abutilon theophrasti [10],5
Cc1ccc(-c2cnc(N3C(=O)N(C)CC3O)cc2C(F)(F)F)cn1 (stereo not drawn) [Compound A20],ABUTH damage score,Abutilon theophrasti [1],5
same,ECHCG damage score,Echinochloa crus-galli [2],5
same,ZEAMX damage score,Zea mays [3],3
same,AMARE damage score,Amaranthus retroflexus [4],5
same,SETFA damage score,Setaria faberi [5],5
same,AMARE damage score,Amaranthus retroflexus [6],5
same,SETFA damage score,Setaria faberi [7],5
same,ECHCG damage score,Echinochloa crus-galli [8],5
same,ZEAMX damage score,Zea mays [9],4
same,ABUTH damage score,Abutilon theophrasti [10],5
CN1CC(O)N(c2cc(C(F)F)c(Cl)cn2)C1=O (stereo not drawn) [Compound A47],ABUTH damage score,Abutilon theophrasti [1],4
same,ECHCG damage score,Echinochloa crus-galli [2],4
same,ZEAMX damage score,Zea mays [3],0
same,SETFA damage score,Setaria faberi [5],4
same,AMARE damage score,Amaranthus retroflexus [6],4
same,ECHCG damage score,Echinochloa crus-galli [8],4
COC(F)(F)c1ccnc(N2C(=O)N(C)CC2O)c1 (stereo not drawn) [Compound A50],ABUTH damage score,Abutilon theophrasti [1],2
same,ECHCG damage score,Echinochloa crus-galli [2],5
same,ZEAMX damage score,Zea mays [3],1
same,AMARE damage score,Amaranthus retroflexus [4],5
same,SETFA damage score,Setaria faberi [5],2
same,AMARE damage score,Amaranthus retroflexus [6],5
same,SETFA damage score,Setaria faberi [7],5
same,ECHCG damage score,Echinochloa crus-galli [8],1
same,ZEAMX damage score,Zea mays [9],1
same,ABUTH damage score,Abutilon theophrasti [10],5
CN1CC(O)N(c2cc(C(F)(F)F)c(NC(=O)C(C)(C)C)cn2)C1=O (stereo not drawn) [Compound A42],ABUTH damage score,Abutilon theophrasti [1],5
same,ECHCG damage score,Echinochloa crus-galli [2],5
same,ZEAMX damage score,Zea mays [3],3
same,AMARE damage score,Amaranthus retroflexus [4],5
same,SETFA damage score,Setaria faberi [5],5
same,AMARE damage score,Amaranthus retroflexus [6],5
same,SETFA damage score,Setaria faberi [7],5
same,ECHCG damage score,Echinochloa crus-galli [8],5
same,ZEAMX damage score,Zea mays [9],5
same,ABUTH damage score,Abutilon theophrasti [10],5
COCCOCc1cnc(N2C(=O)N(C)CC2O)cc1C(F)(F)F (stereo not drawn) [Compound A52],ABUTH damage score,Abutilon theophrasti [1],5
same,ECHCG damage score,Echinochloa crus-galli [2],5
same,ZEAMX damage score,Zea mays [3],4
same,AMARE damage score,Amaranthus retroflexus [4],5
same,SETFA damage score,Setaria faberi [5],5
same,AMARE damage score,Amaranthus retroflexus [6],5
same,SETFA damage score,Setaria faberi [7],5
same,ECHCG damage score,Echinochloa crus-galli [8],5
same,ZEAMX damage score,Zea mays [9],5
same,ABUTH damage score,Abutilon theophrasti [10],5
C=Cc1cnc(N2C(=O)N(C)CC2O)cc1C(F)(F)F (stereo not drawn) [Compound A41],ABUTH damage score,Abutilon theophrasti [1],4
same,ECHCG damage score,Echinochloa crus-galli [2],5
same,ZEAMX damage score,Zea mays [3],2
same,AMARE damage score,Amaranthus retroflexus [4],5
same,SETFA damage score,Setaria faberi [5],4
same,AMARE damage score,Amaranthus retroflexus [6],5
same,SETFA damage score,Setaria faberi [7],5
same,ECHCG damage score,Echinochloa crus-galli [8],4
same,ZEAMX damage score,Zea mays [9],2
same,ABUTH damage score,Abutilon theophrasti [10],5
COc1cc(-c2cnc(N3C(=O)N(C)CC3O)cc2C(F)(F)F)ccn1 (stereo not drawn) [Compound A24],ABUTH damage score,Abutilon theophrasti [1],5
same,ECHCG damage score,Echinochloa crus-galli [2],5
same,ZEAMX damage score,Zea mays [3],2
same,AMARE damage score,Amaranthus retroflexus [4],5
same,SETFA damage score,Setaria faberi [5],5
same,AMARE damage score,Amaranthus retroflexus [6],5
same,SETFA damage score,Setaria faberi [7],5
same,ECHCG damage score,Echinochloa crus-galli [8],5
same,ZEAMX damage score,Zea mays [9],5
same,ABUTH damage score,Abutilon theophrasti [10],5
COc1cncc(-c2cnc(N3C(=O)N(C)CC3O)cc2C(F)(F)F)c1 (stereo not drawn) [Compound A33],ABUTH damage score,Abutilon theophrasti [1],5
same,ECHCG damage score,Echinochloa crus-galli [2],5
same,ZEAMX damage score,Zea mays [3],2
same,AMARE damage score,Amaranthus retroflexus [4],5
same,SETFA damage score,Setaria faberi [5],3
same,AMARE damage score,Amaranthus retroflexus [6],5
same,SETFA damage score,Setaria faberi [7],5
same,ECHCG damage score,Echinochloa crus-galli [8],4
same,ZEAMX damage score,Zea mays [9],4
same,ABUTH damage score,Abutilon theophrasti [10],5
CN1CC(O)N(c2cc(C(F)(F)Cl)ccn2)C1=O (stereo not drawn) [Compound A46],ABUTH damage score,Abutilon theophrasti [1],5
same,ECHCG damage score,Echinochloa crus-galli [2],5
same,ZEAMX damage score,Zea mays [3],2
same,SETFA damage score,Setaria faberi [5],5
same,AMARE damage score,Amaranthus retroflexus [6],5
same,ECHCG damage score,Echinochloa crus-galli [8],4
